Measured values published in patent publication US11617777B2, “Cytotoxic and anti-mitotic compounds, and methods of using the same” (ZYMEWORKS BC INC., priority 2013, dated 2023).
Read-outs that look alike come from different tables or passages of the source.

Tests used:
Test in all cases: Cytotoxicity of compounds, CellTiter-Glo
Jurkat cells = format: cell-based, Human; conditions: Homo sapiens, Jurkat
Summary of the method: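 HCC1954 plated at 2500 cells/100 uL and attached overnight; Jurkat plated at 2500 cells/100 uL on the day of dosing. Cells exposed to 8-step 1:3 compound titrations for three nights at 37° C./5% CO2, in triplicate. CellTiter-Glo luminescence converted to % cytotoxicity versus medium-only control; EC50 by three-parameter nonlinear regression.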

NCI-N87 = format: cell-based; conditions: Homo sapiens, Table 5, read-out: Cytotoxicity (EC50) NCI-N87
Description: (§1) FIG. 1 summarizes the data for compounds A, B, C, D, and E when tested using the Human mammary carcinoma cell line HCC1954 or Human T-cell leukemia cell line Jurkat. FIGS. 2-6 show the cytotoxicity data plots for individual compounds A-E. Tables 2-6 summarize the results of additional cytotoxicity assays.
(§2) Cell lines used: Human T-cell leukemia cell line Jurkat (ATCC: TIB-152); HCC1954 (ATCC: CRL. 2338); Human Pancreatic cells lines: AsPC-1 (ATCC: CRL-1682), BxPC-3 (ATCC: CRL.1687), HPAF-II (ATCC: CRL.1997), MiaPaCa2 (ATCC: CRL.1420), PANC-1 (ATCC: CRL.1469), Capan-1 (ATCC: HTB-79), Capan-2 (ATCC: HTB-80) and the Human gastric carcinoma cell line NCI-N87 (ATCC: CRL. 5822); AML-193 (ATCC: CRL.9589), CCRF-CEM (ATCC: CCL-119), DU145 (ATCC: HTB-81), PC-3 (ATCC: CRL.1435), A-431 (ATCC: CRL.1555), HT-29 (ATCC: HTB-38), A-172 (ATCC: CRL.1620), NCI-H358 (ATCC: CRL.5807), A549 (ATCC: CCL-185), Colo-205 (ATCC: CCL-222), MDA-MB-231 (ATCC: HTB-26), OVCAR-3 (ATCC: HTB-161), OV-90 (ATCC: CRL.11732), OE19 (Sigma: 96071721), RT 112/84 (Sigma: 85061106).
(§3) On the day prior to adding compounds, HCC1954 AsPC-1, BxPC-3, HPAF-II, MiaPaCa2, PANC-1, Capan-1, Capan-2 and NCI-N87 cells were added to opaque-walled 96-well tissue culture-treated microtiter plates using complete growth medium at a density of 2500 cells/100 microlitre (uL) of medium. These adherant cell lines cells were incubated for one night at 37° C./5% CO2 to allow the cells to attach to the microtiter plate surface. On the day that compounds were added, Jurkat cells are added to separate 96-well microtiter plates at 2500 cells/100 uL using the same growth medium as HCC1954. Compound were first serially diluted using dimethyl sulfoxide, and then the prepared dilutions are added to complete growth medium at five-times the final concentration—compounds were then titrated 1:3, eight steps. A control with no compound (growth medium alone) was included on each microtiter plate in sextuplicate. The prepared compounds titrations were added (twenty-five uL/well) in triplicate. The cells and compound titrations were incubated at 37° C./5% CO2 for three nights. After the incubation, cell viability is measured using CellTiter-Glo® reagent by adding thirty uL of prepared CellTiter-Glo® to each assay well. The assay is incubated for at least twenty minutes in the dark prior to measuring emitted luminescence using a microplate luminometer (500 ms integration time). The collected relative luminescence units (RLU) are converted to % cytotoxicity using the Growth medium alone control mentioned above (% Cytotoxicity=1−[Well RLU/average medium alone control RLU]).
(§4) GraphPad Prism was used for generation of EC50 values using three parameter non-linear regression curve fitting.

AsPC-1 = format: cell-based; conditions: Homo sapiens, ASPC1, Table 5, read-out: Cytotoxicity (EC50) AsPC-1
Description: as §1, §2, §3, §4

BxPC-3 = format: cell-based; conditions: Homo sapiens, Table 5, read-out: Cytotoxicity (EC50) BxPC-3
Description: as §1, §2, §3, §4

HPAF-II = format: cell-based; conditions: Homo sapiens, Table 5, read-out: Cytotoxicity (EC50) HPAF-II
Description: as §1, §2, §3, §4

MiaPaCa2 = format: cell-based; conditions: Homo sapiens, MIA PaCa-2; Table 5; MinPaCa2; read-out: Cytotoxicity (EC50) MinPaCa2
Description: as §1, §2, §3, §4

PANC-1 = format: cell-based; conditions: Homo sapiens, Table 5, read-out: Cytotoxicity (EC50) PANC-1
Description: as §1, §2, §3, §4

HCC1954 cells = format: cell-based; conditions: Homo sapiens
Description: as §2, §3, §4

[1] = Table 3, Cytotoxicity of Compounds on Jurkat Cells, read-out: EC50
[2] = HCC1954, Table 4, Cytotoxicity of Compounds on HCC-1954 Cells, read-out: EC50
[3] = Table 6, Compound Cytotoxicity on Jurkat, read-out: EC50
[4] = Table 7, Cytotoxicity on Jurkat, read-out: EC50

Structure (SMILES)	EC50 (Jurkat cells; [1])	EC50 (HCC1954 cells; [2])	EC50 (Jurkat cells; [3])	EC50 (Jurkat cells; [4])	further results
CN[C@H](C(=O)N[C@H](C(=O)N(C)[C@H](/C=C(\C)C(=O)NS(=O)(=O)c1ccc(NC(=O)C(F)(F)F)cc1)C(C)C)C(C)(C)C)C(C)(C)c1ccccc1 [Compound 23, (S,E)-2,5-dimethyl-N-(4-(2,2,2-trifluoroacetamido)phenylsulfonyl)-4-((S)—N,3,3-trimethyl-2-((S)-3-methyl-2-(methylamino)-3-phenylbutanamido)butanamido)hex-2-enamide]	0.031 nM	–	–	–	EC50 (NCI-N87): 0.402 nM
CN[C@H](C(=O)N[C@H](C(=O)N(C)[C@H](/C=C(\C)C(=O)NS(=O)(=O)c1ccc(N)cc1)C(C)C)C(C)(C)C)C(C)(C)c1ccccc1 [Compound 24, (S,E)-N-(4-aminophenylsulfonyl)-2,5-dimethyl-4-((S)—N,3,3-trimethyl-2-((S)-3-methyl-2-(methylamino)-3-phenylbutanamido)butanamido)hex-2-enamide]	0.07 nM	–	–	–	EC50 (AsPC-1): 0.586 nM; EC50 (BxPC-3): 0.27 nM; EC50 (HPAF-II): 0.396 nM; EC50 (MiaPaCa2): 0.566 nM; EC50 (PANC-1): 2.18 nM
CN[C@H](C(=O)N[C@H](C(=O)N(C)[C@H](/C=C(\C)C(=O)NS(=O)(=O)c1ccc(C2(N)CC2)cc1)C(C)C)C(C)(C)C)C(C)(C)c1ccccc1 [Compound 63, (S,E)-N-(4-(1-aminocyclopropyl)phenylsulfonyl)-2,5-dimethyl-4-((S)—N,3,3-trimethyl-2-((S)-3-methyl-2-(methylamino)-3-phenylbutanamido)butanamido) hex-2-enamide]	–	–	–	–	EC50 (AsPC-1): 0.97 nM; EC50 (BxPC-3): 0.697 nM; EC50 (HPAF-II): 0.826 nM; EC50 (MiaPaCa2): 1.02 nM; EC50 (PANC-1): 4 nM
CN[C@H](C(=O)N[C@H](C(=O)N(C)[C@H](/C=C(\C)C(=O)NS(=O)(=O)Cc1ccc(CN)cc1)C(C)C)C(C)(C)C)C(C)(C)c1ccccc1 [Compound 77, (S,E)-N-(4-(aminomethyl)benzylsulfonyl)-2,5-dimethyl-4-((S)—N,3,3-trimethyl-2-((S)-3-methyl-2-(methylamino)-3-phenylbutanamido)butanamido)hex-2-enamide]	–	–	–	–	EC50 (AsPC-1): 15.5 nM; EC50 (BxPC-3): 36.5 nM; EC50 (HPAF-II): 17.2 nM; EC50 (MiaPaCa2): 94.3 nM; EC50 (PANC-1): 97.2 nM
CN[C@H](C(=O)N[C@H](C(=O)N(C)[C@H](/C=C(\C)C(=O)NS(=O)(=O)Cc1ccc(NC(=O)C(F)(F)F)cc1)C(C)C)C(C)(C)C)C(C)(C)c1ccccc1 [Compound 79, (S,E)-2,5-dimethyl-N-(4-(2,2,2-trifluoroacetamido)benzylsulfonyl)-4-((S)—N,3,3-trimethyl-2-((S)-3-methyl-2-(methylamino)-3-phenylbutanamido)butanamido)hex-2-enamide]	0.386 nM	0.241 nM	–	–	–
CN[C@H](C(=O)N[C@H](C(=O)N(C)[C@H](/C=C(\C)C(=O)NS(=O)(=O)Cc1ccc(N)cc1)C(C)C)C(C)(C)C)C(C)(C)c1ccccc1 [Compound 80, (S,E)-N-(4-aminobenzylsulfonyl)-2,5-dimethyl-4-((S)—N,3,3-trimethyl-2-((S)-3-methyl-2-(methylamino)-3-phenylbutanamido)butanamido)hex-2-enamide]	0.389 nM	0.207 nM	–	–	–
CN[C@H](C(=O)N[C@H](C(=O)N(C)[C@H](/C=C(\C)C(=O)NS(=O)(=O)c1ccc(N)c(C)c1C)C(C)C)C(C)(C)C)C(C)(C)c1ccccc1 [Compound 109, (S,E)-N-(4-amino-2,3-dimethylphenylsulfonyl)-2,5-dimethyl-4-((S)—N,3,3-trimethyl-2-((S)-3-methyl-2-(methylamino)-3-phenylbutanamido)butanamido) hex-2-enamide]	–	–	0.087 nM	0.087 nM	–
CN[C@H](C(=O)N[C@H](C(=O)N(C)[C@H](/C=C(\C)C(=O)NS(=O)(=O)c1ccc(N)c2c1CCCC2)C(C)C)C(C)(C)C)C(C)(C)c1ccccc1 [Compound 110, (S,E)-N-(4-amino-5,6,7,8-tetrahydronaphthalen-1-ylsulfonyl)-2,5-dimethyl-4-((S)—N,3,3-trimethyl-2-((S)-3-methyl-2-(methylamino)-3-phenylbutanamido)butanamido)hex-2-enamide]	–	–	0.031 nM	0.031 nM	–
CN[C@H](C(=O)N[C@H](C(=O)N(C)[C@H](/C=C(\C)C(=O)NS(=O)(=O)c1ccc(N)c(C)c1)C(C)C)C(C)(C)C)C(C)(C)c1ccccc1 [Compound 111, (S,E)-N-(4-amino-3-methylphenylsulfonyl)-2,5-dimethyl-4-((S)—N,3,3-trimethyl-2-((S)-3-methyl-2-(methylamino)-3-phenylbutanamido)butanamido)hex-2-enamide]	–	–	~0.118 nM	0.12 nM	–
CN[C@H](C(=O)N[C@H](C(=O)N(C)[C@H](/C=C(\C)C(=O)NS(=O)(=O)c1ccc(N)c(F)c1)C(C)C)C(C)(C)C)C(C)(C)c1ccccc1 [Compound 112, (S,E)-N-(4-amino-3-fluorophenylsulfonyl)-2,5-dimethyl-4-((S)—N,3,3-trimethyl-2-((S)-3-methyl-2-(methylamino)-3-phenylbutanamido)butanamido)hex-2-enamide]	–	–	0.064 nM	0.064 nM	–
CN[C@H](C(=O)N[C@H](C(=O)N(C)[C@H](/C=C(\C)C(=O)NS(=O)(=O)c1ccc(N)c(C(F)(F)F)c1)C(C)C)C(C)(C)C)C(C)(C)c1ccccc1 [Compound 114, (S,E)-N-(4-amino-3-(trifluoromethyl)phenylsulfonyl)-2,5-di methyl-4-((S)—N,3,3-trimethyl-2-((S)-3-methyl-2-(methylamino)-3-phenylbutanamido)butanamido)hex-2-enamide]	–	–	0.056 nM	0.056 nM	–
C/C(=C\[C@H](C(C)C)N(C)C(=O)[C@@H](NC(=O)[C@@H]1CCCCN1C(C)C)C(C)(C)C)C(=O)NS(=O)(=O)CCCS [Compound 115, (S)-1-isopropyl-N—((S)-1-(((S,E)-6-(3-mercaptopropylsulfonamido)-2,5-dimethyl-6-oxohex-4-en-3-yl)(methyl)amino)-3,3-dimethyl-1-oxobutan-2-yl)piperidine-2-carboxamide]	36 nM	172 nM	–	–	–
CN[C@H](C(=O)N[C@H](C(=O)N(C)[C@H](/C=C(\C)C(=O)NS(C)(=O)=O)C(C)C)C(C)(C)C)C(C)(C)c1ccccc1 [Compound E, (S,E)-2,5-dimethyl-N-(methylsulfonyl)-4-((S)—N,3,3-trimethyl-2-((S)-3-methyl-2-(methylamino)-3-phenylbutanamido)butanamido)hex-2-enanmide]	1.67 nM	0.79 nM	–	–	EC50 (HCC1954 cells; Table 1, HCC1954 cells (HER2+), three nights, read-out: HCC1954 cells (HER2+) EC50): 0.79 nM; EC50 (HCC1954 cells; Table 2, HCC1954, read-out: HCC1954 EC50): 0.79 nM; EC50 (Jurkat cells; Table 1, Jurkat cells (HER2−), three nights, read-out: Jurkat cells (HER2−) EC50): 1.67 nM; EC50 (Jurkat cells; Table 2, read-out: Jurkat EC50): 1.67 nM
